Reference: patent US20210009673A1, “METHODS FOR REGULATING BREAST CANCERS” (priority 2018, published 2021)
No end group written: not given here.

Tests used:
ALK = ALK activation in MDA-MB-231 cells stably transfected with dominant negative PTN (anti-ALK phosphotyrosine 1586/1604 Western blot); format: cell-based, human; settings: cells expressing dominant negative PTN vs empty vector
Description: FIG. 18: FIG. 18 illustrates: that a dominant negative PTN blocks ALK activation. MDA-MB-231 cells were transfected with an empty vector or cDNA encoding a dominant negative PTN 1-40. Cell lysates were prepared and analyzed in Western blots probed with anti-phospho-ALK tyrosine 1586/1604 (left two lanes) or separately with anti-ALK antibodies (right two lanes). Arrows point full length ALK (200 kDa) and activated ALK phosphotyrosines 1586/1604.
To test whether ALK is activated through the PTN/RPTPβ/ζ signaling pathway in MDA-MB-231 cells, lysates from MDA-MB-231 cells, stably transfected with dominant negative PTN, were first analyzed in Western blots probed with anti-ALK and with anti-ALK phosphotyrosine 1586/1604 antibodies specific for activated ALK (Bai, Dieter et al. 1998, Mol Cell Biol 18(12): 6951-61). Anti-ALK phosphotyrosines 1586/1604 immunoreactive proteins were only identified in lysates from MDA-MB-231 empty vector cells, consistent with results above and supporting ALK is activated in cells with an activated PTN/RPTPβ/ζ signaling pathway.
The vector pcDNA3.1/PTN1-40 was constructed by inserting the cDNA fragment encoding residues −32 to 40 of human PTN protein into XbaI and BamHI of pcDNA3.1/myc-his/hygro vector (Invitrogen).

[1] = system: MMTV-PyMT mouse breast cancers; assay: breast cancer progression in MMTV-PyMT-PTN 1-40 bi-transgenic mice; format: in vivo
Text: The MMTV LTP promoter and human cDNA encoding PTN 1-40 (residue −32 to residue 40) was amplified using PCR from pcDNA3.1-Ptn (constructed by our laboratory). After restriction enzyme digestion, MMTV LTR and Ptn 1-40 cDNA were inserted into EcoR V, Not I and EcoR I site of pIRES-EGFP (BD clontech). The sequence of the final transgene construction (MMTV-PTN-IRES-EGFP) was verified by nucleotide sequencing. The transgene construction was freed of the bacterial sequences by digestion with EcoR V and Xho I, producing a 4.0-kb linear DNA fragment. The 4.0-kb linear DNA that was injected into the fertilized eggs of FVB mice consisted of the MMTV-LTR, PTN 1-40 cDNA, IRES (internal ribosomal entry site), EGFP cDNA, SV40 poly-adenylation sequences. Tail DNA from weaning mice derived from the transgene-injected eggs was analyzed by PCR. The mice were housed in animal facility of The Scripps Research Institute and were maintained according to NIH guidelines for the Care and Use of Laboratory Animals.
FVB/N-Tg(MMTV-PyVT)634Mul/J transgenic mice were purchased from Jackson laboratory. They develop spontaneous metastatic mammary carcinomas and have been described in before. […] Transgenic animals were genotyped using PCR analysis of genomic DNA obtained from tails. When possible, litter mates with both genotypes were used in the same experiment.
Mice were examined daily seeking mammary tumors by eye examination and finger palpation after 5 weeks of age. The tumors fully formed on the mammary glands were excised and weighed in 12-14 weeks old mice depending on the tumor size in bi-transgenic mice. Tumor length (L) and width (W) were measured 3 times a week using calipers. Tumor volume was estimated using the formula (L×W2)/2. Total wet tumor weight was weighed by scale when the tumors were excised from sacrificed mice.
The tumor tissue excised from euthanized animals was fixed in 10% buffered formalin and embedded in paraffin. The specimens were sectioned, stained with H&E, and Masson trichrome stain for collagen fibers.
Tumor tissue was fixed by 4% paraformaldehyde in phosphate-buffered saline (PBS). After PBS rinse, the tissues were cryoprotected with 30% sucrose in PBS at […] overnight, then infiltrated with a mixture of 1 parts 30% sucrose phosphate buffer to 1 part Histo Prep™ Frozen tissue embedding media (Fisher Scientific) for ½ hour at room temperature before infiltration with 100% Histo Prep™ and freezing. Cryosections ([…]) were cut and immunohistochemistry was performed using rat anti-mouse CD31 (PECAM-1. BD Pharmingen) antibodies. IMD (number of vessels/mm2) was obtained by counting CD31+ vessels in 10 random fields at ×200 magnification.
Reverse transcription was done using […] total RNA in the presence of 50 ng random hexamers using Ominscipt kit (Qiagen) following manufacturer's recommendations. Real time PCR was done using ICycler (BIORAD). The amplification conditions were: one cycle of 95° C.°, 3 min followed by 40 cycles of 95 C°, 30 sec and 60 C°, 15 sec. GAPDH was used as internal control. The fold changes relative to GAPDH was calculated using the formula: Fold Change=2 L (Ct Target1-CtTarget2)/2 L (Ct GAPDH1-CtGAPDH2) Where: Ct is the threshold of cycle number. Target is the gene measured. Number 1 and 2 represent different samples.

[2] = system: MDA-MB-231 cell xenograft; settings: ectopic expression; Zhang, Zhong et al. 1997; cited from earlier work

## dominant negative PTN: mutant PTN (residues 1-40) forming mixed disulfide linked heterodimers with wild-type PTN; expressed from cDNA or transgene (GKKEKPEKKVKKSDCGEWQWSVCVPTSGDCGLGTREGTRT; also: forms mixed disulfide linked heterodimers with wild-type PTN; UniProt P21246 33-72, looked up, fragment)
ALK
  anti-ALK phosphotyrosines 1586/1604 immunoreactive proteins: essentially non-identifiable
[1]; 13-week mice, 2% in MMTV-PyMT, p=0.017
  percentage area of adenoma/MIN: 12%
[1]; 13-week mice, 20% in MMTV-PyMT, p=0.045
  percentage area occupied by early carcinoma: 41%
[1]; 13-week mice, 78% in MMTV-PyMT, P=0.024
  percentage area occupied by later carcinoma: about 45%
[1]; MMTV-PyMT-PTN 1-40 bi-transgenic mouse breast cancers
  foci of scirrhous carcinoma: not seen
[1]; about 30 in MMTV-PyMT, P<0.05
  average intratumor microvessel density (IMD): about 18 blood vessels/mm2
[1]; compared with MMTV-PyMT mice
  tropoelastin and protocollagen mRNA levels (RT-PCR): not statistically different
[1]; compared with MMTV-PyMT-Ptn and MMTV-PyMT mice
  activated fibroblasts in breast cancers: marked reduction
[2]
  MDA-MB-231 cell xenograft growth in nude mice: prevented MDA-MB-231 cell xenograft growth
